This assay deals with T1, PTK2 enzyme (Homo sapiens, UniProt Q05397).
T1 construct: purchased Invitrogen PV3832
T1 sequence (Q05397 whole entry): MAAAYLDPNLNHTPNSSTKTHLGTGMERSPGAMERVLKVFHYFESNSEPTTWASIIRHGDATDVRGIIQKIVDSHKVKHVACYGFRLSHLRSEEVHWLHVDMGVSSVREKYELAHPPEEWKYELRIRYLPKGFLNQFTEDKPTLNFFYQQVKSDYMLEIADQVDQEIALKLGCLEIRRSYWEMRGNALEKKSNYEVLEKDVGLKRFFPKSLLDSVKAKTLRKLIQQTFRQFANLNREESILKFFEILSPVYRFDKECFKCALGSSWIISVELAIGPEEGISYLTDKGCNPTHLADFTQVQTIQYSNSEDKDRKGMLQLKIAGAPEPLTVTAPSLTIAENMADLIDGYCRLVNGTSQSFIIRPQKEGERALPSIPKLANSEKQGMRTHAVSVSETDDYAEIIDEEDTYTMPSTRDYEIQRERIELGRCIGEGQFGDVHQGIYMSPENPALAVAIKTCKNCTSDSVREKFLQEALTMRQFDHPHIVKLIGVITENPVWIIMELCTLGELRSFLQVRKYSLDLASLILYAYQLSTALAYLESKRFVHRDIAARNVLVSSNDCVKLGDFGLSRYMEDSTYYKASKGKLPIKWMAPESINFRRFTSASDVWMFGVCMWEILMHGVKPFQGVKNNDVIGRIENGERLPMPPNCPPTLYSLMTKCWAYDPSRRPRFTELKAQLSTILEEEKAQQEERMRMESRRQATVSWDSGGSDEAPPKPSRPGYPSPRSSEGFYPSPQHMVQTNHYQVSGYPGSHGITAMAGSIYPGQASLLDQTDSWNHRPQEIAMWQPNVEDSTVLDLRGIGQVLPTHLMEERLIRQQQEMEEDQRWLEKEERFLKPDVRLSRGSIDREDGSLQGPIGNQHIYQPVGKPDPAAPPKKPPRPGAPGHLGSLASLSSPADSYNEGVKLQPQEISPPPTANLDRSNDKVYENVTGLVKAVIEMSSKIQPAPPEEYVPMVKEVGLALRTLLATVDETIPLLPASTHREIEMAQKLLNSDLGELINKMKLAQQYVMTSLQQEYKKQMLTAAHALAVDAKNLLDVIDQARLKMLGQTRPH
The assay can be described thus: PTK2 enzyme test, Assay 1 (DELFIA, poly-Glu-Tyr substrate, antibody PT60). The assay is classed as biochemical. As to conditions: Assay 1 (values without *); 1 h pre-incubation, 2% DMSO. As to the method: This test uses active PTK2 enzyme (Invitrogen Code PV3832) and poly-Glu-Tyr (4:1, Sigma P-0275) as the kinase substrate. The kinase activity is detected through the phosphorylation of the substrate in a DELFIA™ assay. The phosphorylated substrate is detected with the europium-labelled phosphotyrosine antibody PT60 (Perkin Elmer, No.: AD00400).
In order to determine concentration-activity curves with PTK2-inhibitors the compounds are serially diluted in 10% DMSO/H2O and 10 μL of each dilution are placed in each well of a 96-well microtitre plate (clear plate with a U-shaped base, Greiner No. 650101) (the inhibitors are tested in duplicates) and mixed with 10 μL/well of PTK2 kinase (0.01 μg/well). PTK2 kinase has been correspondingly diluted beforehand with kinase dilution buffer (20 mM TRIS/HCl pH 7.5, 0.1 mM EDTA, 0.1 mM EGTA, 0.286 mM sodium orthovanadate, 10% glycerol with the addition of freshly prepared BSA (fraction V, 1 mg/mL) and DTT (1 mM)). The test compound and the PTK2 kinase are pre-incubated for 1 h at RT and shaken at 500 revolutions per min. The reaction is started by the addition of 10 μL/well poly (Glu,Tyr) substrate (25 μg/well poly (Glu, Tyr), 0.05 μg/well biotinylated poly (Glu,Tyr) dissolved in 250 mM TRIS/HCl pH 7.5, 9 mM DTT)—the final concentration of DMSO is 2%. Then 20 μL of ATP Mix (30 mM TRIS/HCl pH 7.5, 0.02% Brij, 0.2 mM sodium orthovanadate, 10 mM magnesium acetate, 0.1 mM EGTA, 1× phosphatase inhibitor cocktail 1 (Sigma, No.: P2850), 50 μM ATP (Sigma, No.: A3377; 15 mM stock solution)) are added. After 1 h of kinase reaction (the plates are shaken at 500 rpm), the reaction is stopped by the addition of 12 μL/well 100 mM EDTA, pH 8.0 and shaken for a further 5 min at RT (500 rpm). 55 μL of the reaction mixture are transferred into a streptavidin plate (Strepta Well High Bind (transparent, 96-well) made by Roche, No.: 11989685001) and incubated for 1 h at RT (shaking at 500 rpm). Then the microtitre plate is washed three times with 200 μL/well D-PBS (Invitrogen, No. 14190). 100 μL of a solution containing DELFIA Eu-N1 Anti-Phosphotyrosine PT60 antibody (Perkin Elmer, No.: AD0040, diluted 1:2000 in DELFIA test buffer (Perkin Elmer, No.: 1244-111)) is then added and the mixture is incubated for 1 h at RT (shaking at 500 rpm). Then the plate is washed three times with 200 μL/well DELFIA washing buffer (Perkin Elmer, No.: 1244-114), 200 μL/well strengthening solution (Perkin Elmer, No.: 1244-105) are added and the mixture is incubated for 10 min at RT (shaking at 300 rpm).
The time-delayed europium fluorescence is then measured in a microtitre plate reader (VICTOR^3, Perkin Elmer). […] Wells that contain test buffer instead of enzyme are used as a control of the background kinase activity.
The IC50 values are determined from analyses of the concentration activity by iterative calculation with the aid of a sigmoid curve analysis algorithm (FIFTY, based on Graph PAD Prism Version 3.03) with a variable Hill coefficient.
With `COc1cc(C(=O)NC2CCN(C)CC2)ccc1Nc1ncc(C(F)(F)F)c(N[C@@H]2CCCC[C@H]2NCC(=O)N(C)OC)n1` [Example I-26], the midpoint of inhibition, the IC50, lay at 23 nM. In other words, the double-digit nanomolar range.
For `COc1cc([C@@H](O)CO)ccc1Nc1ncc(C(F)(F)F)c(N[C@@H]2CCCC[C@H]2N(C)S(C)(=O)=O)n1` [Example I-157] the value was 0.69 nM; for `COc1cc(C(=O)NC2CCN(C)CC2)ccc1Nc1ncc(C(F)(F)F)c(N[C@@H]2CCCC[C@H]2N(C)C(=O)C2CCC2)n1` [Example I-84], 37 nM; for `CCNC(=O)c1ccc(Nc2ncc(Cl)c(N[C@@H]3CCCC[C@H]3NC(C)=O)n2)c(OC)c1` [Example I-58], 3 nM.
As for `CON[C@@H]1CCCC[C@H]1Nc1nc(Nc2ccc(C(=O)NC3CCN(C)CC3)cc2OC)ncc1C(F)(F)F` [Example I-119], the figure is 6 nM; as for `CON[C@H]1CCCC[C@H]1Nc1nc(Nc2ccc(C(=O)NC3CCN(C)CC3)cc2OC)ncc1C(F)(F)F` [Example I-113], 5 nM; as for `COc1cc(C(=O)NC2CCCN(C)C2)ccc1Nc1ncc(C(F)(F)F)c(N[C@@H]2CCCC[C@H]2NC(C)=O)n1` (stereo partly shown) [Example I-10], 3 nM.
As for `COc1cc(CN(C)C)ccc1Nc1ncc(C(F)(F)F)c(N[C@@H]2CCCC[C@H]2NC(C)=O)n1` [Example I-118], the figure is 1 nM; as for `COc1ccc(Nc2ncc(Cl)c(N[C@@H]3CCCC[C@H]3NC(C)=O)n2)c(OC)c1` [Example I-67], 10 nM; as for `COc1cc(C(=O)NC2CCN(C)CC2)ccc1Nc1ncc(C(F)(F)F)c(N[C@@H]2CCCC[C@H]2NC(=O)C2CC2)n1` [Example I-20], 1 nM.
`COc1cc(C(=O)NC2CCN(C)CC2)ccc1Nc1ncc(C(F)(F)F)c(N[C@@H]2CCCC[C@H]2N(C)C)n1` [Example I-34]: the midpoint of inhibition, the IC50, lay at 71 nM.
Consider `COc1cc(C(=O)NC2CCN(C)CC2)ccc1Nc1ncc(C(F)(F)F)c(N[C@@H]2CCCC[C@H]2NC(=O)C2CCCC2)n1` [Example I-22], for which the 50% inhibitory concentration (IC50) is 15 nM.
For `COc1cc(C(=O)NC2CCN(C)CC2)ccc1Nc1ncc(C(F)(F)F)c(N[C@@H]2CCCC[C@H]2N(C)C(=O)C(C)C)n1` [Example I-80] the value was 9 nM; for `CCNC(=O)c1ccc(Nc2ncc(C(F)(F)F)c(N[C@@H]3CCCC[C@H]3NC(C)=O)n2)c(OC)c1` [Example I-7], 3 nM.
For `COCC(=O)N[C@@H]1CCCC[C@H]1Nc1nc(Nc2ccc(N3CCN(C)CC3)cc2OC)ncc1C(F)(F)F` [Example I-31] the value was 5 nM; for `CCN([C@@H]1CCCC[C@H]1Nc1nc(Nc2ccc(C(=O)NC3CCCN(C)C3)cc2OC)ncc1C(F)(F)F)S(C)(=O)=O` (stereo partly shown) [Example I-149], 2 nM.
As for `COc1cc(C(=O)NCCN(C)C)ccc1Nc1ncc(Cl)c(N[C@@H]2CCCC[C@H]2NC(C)=O)n1` [Example I-59], the figure is 1 nM.
`COc1cc(N2CCN(C)CC2)ccc1Nc1ncc(C(F)(F)F)c(N[C@@H]2CCCC[C@H]2NC(=O)C(C)C)n1` [Example I-30] displayed an IC50 of 5 nM.
For `COc1cc(C(=O)NCCN(C)C)c(Cl)cc1Nc1ncc(Cl)c(N[C@@H]2CCCC[C@H]2N(C)S(C)(=O)=O)n1` [Example I-171] the value was 2 nM; for `COc1ccc(Nc2ncc(C(F)(F)F)c(N[C@@H]3CCCC[C@H]3NC(=O)CC(C)C)n2)c(OC)c1` [Example I-70], 440 nM; for `COc1cc(C(=O)NC2CCN(C)CC2)c(F)cc1Nc1ncc(C(F)(F)F)c(N[C@@H]2CCCC[C@H]2NS(C)(=O)=O)n1` [Example I-141], 1 nM.
Molecule `CCC(=O)N(C)[C@@H]1CCCC[C@H]1Nc1nc(Nc2ccc(C(=O)NC3CCN(C)CC3)cc2OC)ncc1C(F)(F)F` [Example I-81] showed an IC50 of 3 nM.
For `COc1cc(C(=O)NC2CCN(C)CC2)ccc1Nc1ncc(C(C)C)c(N[C@@H]2CCCC[C@H]2N(C)S(C)(=O)=O)n1` [Example I-175] the value was 0.64 nM.
As for `COC(=O)N(C)[C@@H]1CCCC[C@H]1Nc1nc(Nc2ccc(C(=O)NC3CCN(C)CC3)cc2OC)ncc1C(F)(F)F` [Example I-95], inhibition was half-maximal at 7 nM (IC50).
For `COc1cc(C(=O)NC2CCCN(C)C2)ccc1Nc1ncc(Br)c(N[C@@H]2CCCC[C@H]2NC(C)=O)n1` (stereo partly shown) [Example I-45] the value was 1 nM; for `COc1cc(C(=O)N[C@H]2CCCN(C)C2)ccc1Nc1ncc(C(F)(F)F)c(N[C@@H]2CCCC[C@H]2N(C)C(C)=O)n1` [Example I-107], 1 nM.
Turning to `COc1cc(C(=O)N[C@@H]2CCCN(C)C2)ccc1Nc1ncc(C(F)(F)F)c(N[C@@H]2CCCC[C@H]2N(C)C(C)=O)n1` [Example I-111], 1 nM corresponded to half-maximal inhibition (IC50). That is a single-digit nanomolar value.
As for `COc1cc(C(=O)NC2CCN(C(C)C)CC2)ccc1Nc1ncc(C(F)(F)F)c(N[C@@H]2CCCC[C@H]2N(C)C(C)=O)n1` [Example I-109], the figure is 1 nM; as for `CCCC(=O)N[C@@H]1CCCC[C@H]1Nc1nc(Nc2ccc(C(=O)NC3CCN(C)CC3)cc2OC)ncc1C(F)(F)F` [Example I-19], 4 nM.
For `COc1cc(N2CCN(CC(=O)N(C)C)CC2)ccc1Nc1ncc(C(F)(F)F)c(N[C@@H]2CCCC[C@H]2N(C)S(C)(=O)=O)n1` [Example I-150] the value was 2 nM; for `COc1cc(C(=O)NC2CCN(C)CC2)ccc1Nc1ncc(C(F)(F)F)c(N[C@@H]2CCCC[C@H]2N(C)C(C)=O)n1` [Example I-82], 0.98 nM; for `CC(=O)Nc1ccc(Nc2ncc(C(F)(F)F)c(N[C@@H]3CCCC[C@H]3N(C)S(C)(=O)=O)n2)cc1Cl` [Example I-187], 6 nM.
As for `CCN(C(C)=O)[C@@H]1CCCC[C@H]1Nc1nc(Nc2ccc(C(=O)NC3CCN(C)CC3)cc2OC)ncc1C(F)(F)F` [Example I-99], the figure is 3 nM; as for `COc1cc(C(=O)NC2CCN(C)CC2)ccc1Nc1ncc(C(F)(F)F)c(N[C@@H]2CCC[C@@H]2NC(C)=O)n1` [Example I-105], 38 nM; as for `COc1cc(C(=O)N(C)C)ccc1Nc1ncc(Br)c(N[C@@H]2CCCC[C@H]2NC(C)=O)n1` [Example I-49], 10 nM.
Molecule `CCN1CCC(NC(=O)c2ccc(Nc3ncc(Cl)c(N[C@@H]4CCCC[C@H]4NC(C)=O)n3)c(OC)c2)CC1` [Example I-61] yielded an IC50 of 1 nM.
`COc1cc(C(=O)N(C)C)ccc1Nc1ncc(Cl)c(N[C@@H]2CCCC[C@H]2NC(C)=O)n1` [Example I-57] returned a concentration for half-maximal inhibition (IC50) of 26 nM. This IC50 lies about 26-fold higher than the previous one.
As for `COc1cc(N2CCN(C)CC2)ccc1Nc1ncc(C(F)(F)F)c(N[C@@H]2CCCC[C@H]2N(C)C(C)=O)n1` [Example I-101], the IC50 stood at 2 nM.
As for `COc1cc(C(=O)NC2CCN(C)CC2)ccc1Nc1ncc(C(F)(F)F)c(N[C@@H]2CCCC[C@H]2NC(C)=O)n1` [Example I-11], the figure is 2 nM; as for `CNCc1ccc(Nc2ncc(C(F)(F)F)c(N[C@@H]3CCCC[C@H]3NC(C)=O)n2)c(OC)c1` [Example I-76], 1 nM.
As for `COc1cc(C(=O)NC2CCN(C)CC2)ccc1Nc1ncc(C(F)(F)F)c(N[C@@H]2CCCC[C@@H]2NC(C)=O)n1` [Example I-5], the figure is 19 nM.
Regarding `COc1cc(C(=O)NC2CCN(C)CC2)c(F)cc1Nc1ncc(Cl)c(N[C@@H]2CCCC[C@H]2N(C)S(C)(=O)=O)n1` [Example I-174], inhibition was half-maximal at 4 nM (IC50).
For `COc1cc(C(=O)N(C)C)ccc1Nc1ncc(C(F)(F)F)c(N[C@@H]2CCCC[C@H]2N(C)C(C)=O)n1` [Example I-72] the value was 31 nM; for `COc1cc(C(=O)NC2CCN(C)CC2)ccc1Nc1ncc(Cl)c(N[C@@H]2CCCC[C@H]2N(C)S(C)(=O)=O)n1` [Example I-162], 1 nM; for `COc1cc(N2CCN(C(C)(C)C)CC2)ccc1Nc1ncc(Cl)c(N[C@@H]2CCCC[C@H]2N(C)S(C)(=O)=O)n1` [Example I-183], 4 nM.
With `CCN(CC)C(=O)CN[C@@H]1CCCC[C@H]1Nc1nc(Nc2ccc(C(=O)NC3CCN(C)CC3)cc2OC)ncc1C(F)(F)F` [Example I-24], the IC50 was found to be 24 nM. This IC50 lies about 6-fold higher than the previous one.

Broadly, the IC50 is the concentration needed to halve the response being measured. Read a high IC50 as weaker potency in that assay.
